Earlier results, collected in US20260373193A1, “CARCINOGENESIS REDUCTION WITH PENTAAZA MACROCYLIC RING COMPLEX” (GALERA LABS, LLC, priority 2023, published 2026).

How the values were obtained:
[1] = test system: collagen-induced arthritis; details: rat collagen-induced arthritis; cited from earlier work
[2] = test system: colon of rats; details: experimental colitis; cited from earlier work
[3] = test system: radiation-induced oral mucositis; details: hamster; cited from earlier work
[4] = test system: radiation damage; details: adult mice; cited from earlier work
[5] = test system: established tumors; details: cited from earlier work
[6] = test system: acute and sub-chronic radiation damage; platinum therapy kidney damage; details: mucositis, pulmonary pneumonitis and fibrosis, liver damage; cited from earlier work
[7] = test system: inflammation; details: rat; cited from earlier work

| Structure (SMILES) | joint disease [1] | injury to the colon [2] | radiation-induced oral mucositis [3] | radiation damage, lethal total body irradiation [4] | efficacy of radiation and other therapies [5] | overt acute and sub-chronic radiation damage; platinum therapy kidney damage [6] | inflammation [7] |
| --- | --- | --- | --- | --- | --- | --- | --- |
| [Cl-].[Cl-].[Mn+2].c1cc2nc(c1)CN[C@@H]1CCCC[C@H]1NCCN[C@@H]1CCCC[C@H]1NC2 [GC4403] | prevent joint disease | very significantly reduce the injury to the colon of rats | attenuate the radiation damage | attenuate the radiation damage | enhance the efficacy of radiation and other therapies | reduce overt acute and sub-chronic radiation damage | inhibit inflammation |
| CCC(=O)[O-].CCC(=O)[O-].[Mn+2].c1cc2nc(c1)CN[C@H]1CCCC[C@@H]1NCCN[C@H]1CCCC[C@@H]1NC2 [GC4711] | – | – | – | – | enhance the efficacy of radiation and other therapies | reduce overt acute and sub-chronic radiation damage | – |
